From patent US12473295B2, “Substituted straight chain spiro derivatives” (Janssen Pharmaceutica NV, priority 2019, dated 2025)
Counter-ions that a name gives are not always drawn. Like-named read-outs stand apart in the source and are kept apart here.

Columns and labels:
[1] = test system: OCI-AML3 cells; assay: Proliferation assay (spheroid growth, 8 days), OCI-AML3; type: cell-based, human; conditions: OCI-AML3, 8 days
Experimental: The anti-proliferative effect of menin/MLL protein/protein interaction inhibitor test compounds was assessed in human leukemia cell lines. The cell line MOLM14 harbors a MLL translocation and expresses the MLL fusion protein MLL-AF9, respectively, as well as the wildtype protein from the second allele. OCI-AML3 cells that carry the NPM1c gene mutation were also tested. […] KO-52 was used as a control cell line containing two MLL (KMT2A) wildtype alleles in order to exclude compounds that display general cytotoxic effects.
KO-52 and OCI-AML3 cell lines were propagated in alpha-MEM (Sigma Aldrich) supplemented with 20% heat-inactivated fetal bovine serum (HyClone), 2 mM L-glutamine (Sigma Aldrich) and 50 μg/ml gentamycin (Gibco).
In order to assess the anti-proliferative effects, 200 MOLM14 cells, 200 OCI-AML3 cells or 300 KO-52 cells were seeded in 200 μl media per well in […] round bottom, ultra-low attachment plates (Costar, catalogue number 7007). Cell seeding numbers were chosen based on growth curves to ensure linear growth throughout the experiment. Test compounds were added at different concentrations and the DMSO content was normalized to 0.3%. Cells were incubated for 8 days at 37° C. and 5% CO2. Spheroid like growth was measured in real-time by live-cell imaging (IncuCyteZOOM, Essenbio, 4× objective) acquiring images at day 8. Confluence (%) as a measure of spheroid size was determined using an integrated analysis tool.
In order to determine the effect of the test compounds over time, the confluence in each well as a measure of spheroid size, was calculated. Confluence of the highest dose of a reference compound was used as baseline for the LC (Low control) and the confluence of DMSO treated cells was used as 0% cytotoxicity (High Control, HC).
GraphPad Prism(version 7.00) was used to calculate the IC50. Dose-response equation was used for the plot of % Effect vs Log 10 compound concentration with a variable slope and fixing the maximum to 100% and the minimum to 0%.

[2] = test system: MOLM14 cells; assay: Proliferation assay (spheroid growth, 8 days), MOLM14; type: cell-based, human; conditions: MOLM14, 8 days, read-out: spheroid assay_OneTime MOLM14 IC50;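 further: spheroid size read as confluence by live-cell imaging, compounds added at a range of concentrations with 0.3% DMSO, DMSO-treated wells = 0%, highest reference dose = low control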
[3] = biological target: menin/MLL (terbium chelate-labeled menin, FITC-MBM1 peptide) (Homo sapiens (Human), UniProt O00255); assay: Menin/MLL homogenous time-resolved fluorescence (HTRF) assay; type: binding;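 further: IC50 from percent inhibition of HTRF signal, normalized between wells without competitor and wells with a saturating competitor that displaces FITC-MBM1 from His-tagged menin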
[4] = test system: MEIS1 mRNA; assay: MEIS1 mRNA expression assay (Quantigene Singleplex) in MOLM14 cells; type: cell-based, human; conditions: 48 hours incubation;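 further: MEIS1 transcript levels read by probe hybridization and normalized to RPL28 mRNA, with IC50 fitted to fold changes across a rising compound concentration series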
[5] = read-out: HTRF-30 min incubation IC50, 30 min incubation
[6] = HTRF-30 min incubation IC50, 30 min incubation

Chain of menin/MLL (terbium chelate-labeled menin, FITC-MBM1 peptide) (O00255 other isoform, or with tags, fused parts or gaps): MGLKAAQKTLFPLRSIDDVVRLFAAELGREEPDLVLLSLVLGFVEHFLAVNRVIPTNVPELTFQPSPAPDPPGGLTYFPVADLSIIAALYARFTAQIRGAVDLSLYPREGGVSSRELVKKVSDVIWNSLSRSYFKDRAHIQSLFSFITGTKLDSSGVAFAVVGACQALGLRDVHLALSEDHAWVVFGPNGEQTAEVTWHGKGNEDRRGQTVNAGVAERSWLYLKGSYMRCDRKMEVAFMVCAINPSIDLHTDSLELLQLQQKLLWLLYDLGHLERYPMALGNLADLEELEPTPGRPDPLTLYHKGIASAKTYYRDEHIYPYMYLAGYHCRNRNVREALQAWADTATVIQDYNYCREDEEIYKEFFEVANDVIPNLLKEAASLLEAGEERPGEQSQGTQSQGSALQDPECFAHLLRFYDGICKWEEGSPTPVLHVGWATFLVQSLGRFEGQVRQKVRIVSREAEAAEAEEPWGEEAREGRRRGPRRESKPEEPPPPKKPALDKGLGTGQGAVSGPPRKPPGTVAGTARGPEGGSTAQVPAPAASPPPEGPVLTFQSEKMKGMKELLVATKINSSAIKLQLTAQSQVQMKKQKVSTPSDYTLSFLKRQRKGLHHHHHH

Molecule	IC50 [1] [nM]	IC50 [2] [nM]	IC50 [3, 5] [nM]	IC50 ([1]; Homo sapiens, OCI-AML-3, […]) [nM]	IC50 ([2]; Homo sapiens, MOLM-14, […]) [nM]	IC50 [3, 6] [nM]	IC50 ([4]; Homo sapiens, MOLM-14, 48 h) [nM]	IC50 [4] [nM]
CC(C)[C@H](CCCN(C)C)N1CC2(CCN(c3ccnnc3Oc3ccc(F)cc3C(=O)N(C(C)C)C(C)C)C2)C1 (single isomer, unassigned) [Compound 76, (*S)-2-((4-(2-(6-(dimethylamino)-2-methylhexan-3-yl)-2,6-diazaspiro[3.4]octan-6-yl)pyridazin-3-yl)oxy)-5-fluoro-N,N-diisopropylbenzamide]	2390	340	2.56					
CCN(C(=O)c1cc(F)ccc1Oc1nncnc1N1CCC2(C1)CN(C(C(C)C)C(C)CCN(C)CCOC)C2)C(C)C (single isomer, unassigned) [Compound 265, N-ethyl-5-fluoro-N-isopropyl-2-((5-(2-(6-((2-methoxyethyl)(methyl)amino)-2,4-dimethylhexan-3-yl)-2,6-diazaspiro[3.4]octan-6-yl)-1,2,4-triazin-6-yl)oxy)benzamide (mixture of R,S and S,R; or mixture of RR and S,S) fumarate]				61	28	0.29		
CCN(C(=O)c1cc(F)ccc1Oc1nncnc1N1CCC2(C1)CN([C@@H](CCCCN)C(C)C)C2)C(C)C (single isomer, unassigned) [Compound 210, (*S)-2-((5-(2-(7-amino-2-methylheptan-3-yl)-2,6-diazaspiro[3.4]octan-6-yl)-1,2,4-triazin-6-yl)oxy)-N-ethyl-5-fluoro-N-isopropylbenzamide]				4630	> 940	5.57	> 1000	
CCN(C(=O)c1cc(F)ccc1Oc1nncnc1N1CCC2(C1)CN([C@@H](C[C@@H](C)CN(C)CCOC)C(C)C)C2)C(C)C (single isomer, unassigned) [Compound 241, N-ethyl-5-fluoro-N-isopropyl-2-((5-(2-((3*S,5*R)-6-((2-methoxyethyl)(methyl)amino)-2,5-dimethylhexan-3-yl)-2,6-diazaspiro[3.4]octan-6-yl)-1,2,4-triazin-6-yl)oxy)benzamide fumarate]				1120	180	1.36	280	
CCN(C(=O)c1cc(F)ccc1Oc1nncnc1N1CCC2(C1)CN([C@@H](CCO)C(C)C)C2)C(C)C (single isomer, unassigned) [Compound 215, (*S)—N-ethyl-5-fluoro-2-((5-(2-(1-hydroxy-4-methylpentan-3-yl)-2,6-diazaspiro[3.4]octan-6-yl)-1,2,4-triazin-6-yl)oxy)-N-isopropylbenzamide]	9240	1490	88.8					> 1000
CCN(C(=O)c1cc(F)ccc1Oc1nnc(C)nc1N1CCC2(C1)CN([C@H](CCCN)C(C)C)C2)C(C)C [Compound 413, (R)-2-((5-(2-(6-amino-2-methylhexan-3-yl)-2,6-diazaspiro[3.4]octan-6-yl)-3-methyl-1,2,4-triazin-6-yl)oxy)-N-ethyl-5-fluoro-N-isopropylbenzamide formate]				1490	720	0.051	~590	
CCN(C(=O)c1cc(F)ccc1Oc1nnc(NC)nc1N1CCC2(C1)CN([C@H](CCCN(C)CCOC)C(C)C)C2)C(C)C [Compound 395, (R)-N-ethyl-5-fluoro-N-isopropyl-2-((5-(2-(6-((2-methoxyethyl)(methyl)amino)-2-methylhexan-3-yl)-2,6-diazaspiro[3.4]octan-6-yl)-3-(methylamino)-1,2,4-triazin-6-yl)oxy)benzamide formate]				280	56	0.2	140	
CCN(C(=O)c1cc(F)ccc1Oc1nnc(NC)nc1N1CCC2(C1)CN([C@H](CCCN)C(C)C)C2)C(C)C [Compound 409, (R)-2-((5-(2-(6-amino-2-methylhexan-3-yl)-2,6-diazaspiro[3.4]octan-6-yl)-3-(methylamino)-1,2,4-triazin-6-yl)oxy)-N-ethyl-5-fluoro-N-isopropylbenzamide hydrochloride]				1850	640	0.12	~440	
CCN(C(=O)c1cc(F)ccc1Oc1nncnc1N1CCC2(C1)CN([C@@H](CCN(C)C)C(C)C)C2)C(C)C (single isomer, unassigned) [Compound 225, (*S)-2-((5-(2-(1-(dimethylamino)-4-methylpentan-3-yl)-2,6-diazaspiro[3.4]octan-6-yl)-1,2,4-triazin-6-yl)oxy)-N-ethyl-5-fluoro-N-isopropylbenzamide fumarate]				7090	> 940	8.31	> 1000	
COCCN(C)CCC[C@H](C(C)C)N1CC2(CCN(c3ncnnc3Oc3ccc(F)cc3C(=O)N([13CH2][13CH3])[13CH]([13CH3])[13CH3])C2)C1.O=C(O)C(=O)O [Compound 402]				40	7			
CCN(C(=O)c1cc(F)ccc1Oc1nnc(Cl)nc1N1CCC2(C1)CN([C@H](CCCN)C(C)C)C2)C(C)C [Compound 406, (R)-2-((5-(2-(6-amino-2-methylhexan-3-yl)-2,6-diazaspiro[3.4]octan-6-yl)-3-chloro-1,2,4-triazin-6-yl)oxy)-N-ethyl-5-fluoro-N-isopropylbenzamide formate]				490	220	0.033	130	
CCN(C(=O)c1cc(F)ccc1Oc1nncnc1N1CC2(CCN(C(CCCN(C)CCOC)C(C)C)C2)C1)C(C)C (stereo not drawn) [Compound 302, N-ethyl-5-fluoro-N-isopropyl-2-((5-(6-(6-((2-methoxyethyl)(methyl)amino)-2-methylhexan-3-yl)-2,6-diazaspiro[3.4]octan-2-yl)-1,2,4-triazin-6-yl)oxy)benzamide fumarate]				770	97	0.26	160	
CC(C)[C@H](C[C@H](O)CN(C)C)N1CC2(CCN(c3ncnnc3Oc3ccc(F)cc3C(=O)N(C(C)C)C(C)C)C2)C1 (single isomer, unassigned) [Compound 369, 2-((5-(2-((3*S,5*S)-6-(dimethylamino)-5-hydroxy-2-methylhexan-3-yl)-2,6-diazaspiro[3.4]octan-6-yl)-1,2,4-triazin-6-yl)oxy)-5-fluoro-N,N-diisopropylbenzamide fumarate]					420	1.82	~360	
CCN(C(=O)c1cc(F)ccc1Oc1nncnc1N1CCC2(C1)CN([C@H](CCN(C)CC(N)=O)C(C)C)C2)C(C)C (single isomer, unassigned) [Compound 231, (*R)-2-((5-(2-(1-amino-2-oxoethyl)(methyl)amino)-4-methylpentan-3-yl)-2,6-diazaspiro[3.4]octan-6-yl)-1,2,4-triazin-6-yl)oxy)-N-ethyl-5-fluoro-N-isopropylbenzamide]				1800	790	1.77	~560	
CCN(C(=O)c1cc(F)ccc1Oc1nncnc1N1CCC2(C1)CN([C@H](C[C@H](CN(C)C)OC)C(C)C)C2)C(C)C (single isomer, unassigned) [Compound 314, 2-((5-(2-((3*R,5*R)-6-(dimethylamino)-5-methoxy-2-methylhexan-3-yl)-2,6-diazaspiro[3.4]octan-6-yl)-1,2,4-triazin-6-yl)oxy)-N-ethyl-5-fluoro-N-isopropylbenzamide fumarate]					300	1.53	160	
CCN(C)C[C@H](O)C[C@@H](C(C)C)N1CC2(CCN(c3ncnnc3Oc3ccc(F)cc3C(=O)N(CC)C(C)C)C2)C1 (relative stereo) [Compound 347, N-ethyl-2-((5-(2-((3*S,5R)-6-(ethyl(methyl)amino)-5-hydroxy-2-methylhexan-3-yl)-2,6-diazaspiro[3.4]octan-6-yl)-1,2,4-triazin-6-yl)oxy)-5-fluoro-N-isopropylbenzamide formate]				4980	> 940	12	> 1000	
N-ethyl-(2-(((3-(2-(5 ethyl(methyl)amino)-5-methoxy-2-methylhexan-3-yl-2,&6-diazaspiro[3.4]octan-6-yl)-1,2,4-triazin-6-yl)oxy)-5-fluoro-N-isopropylbenzamide [Compound 313]			1.99					~260
